Consider 3 compounds from patent publication US11541062B2, “Methods of treating advanced prostate cancer” (priority 2017, dated 2023).

Numbering of substitutions follows the chain as printed.

As a reminder, the half-life is how long it takes for the measured level to halve. A lower half-life goes with rapid decline.

The nature of data set [1]: Serum concentration of androgen analogs after intravenous injection, by LC/MS. The format is in vivo. The note with it: mouse, 50 ug, 50 μg intravenous, C57/B6 mice. How it is done: FIG. 8. C57B6 mice were intravenously injected with 50 μg of IVMDHT, IVNDHT, and IVDHT. Blood samples were collected at 1, 2, 4, and 8 hours (n=4) and the serum concentrations of the compounds were analyzed by liquid chromatography mass spectrometry. With reference to 2 hours on FIG. 8, the upper line represents IVMDHT; the middle line represents IVNDHT, and the lower line represents IVDHT.
To assess the stability of different androgen analogs, 50 μg of IVDHT, IVNDHT, and IVMDHT was intravenously injected into C57/B6 mice. Blood samples were collected from the mice at 1, 2, 4, and 8 hours and analyzed by liquid chromatography/mass spectrometry (n=4).

In another data set the target is T1, human AR (Homo sapiens, UniProt P10275).
T1 construct: expressed in transfected cells; host or cells: CV-1
T1 sequence (P10275 1-920): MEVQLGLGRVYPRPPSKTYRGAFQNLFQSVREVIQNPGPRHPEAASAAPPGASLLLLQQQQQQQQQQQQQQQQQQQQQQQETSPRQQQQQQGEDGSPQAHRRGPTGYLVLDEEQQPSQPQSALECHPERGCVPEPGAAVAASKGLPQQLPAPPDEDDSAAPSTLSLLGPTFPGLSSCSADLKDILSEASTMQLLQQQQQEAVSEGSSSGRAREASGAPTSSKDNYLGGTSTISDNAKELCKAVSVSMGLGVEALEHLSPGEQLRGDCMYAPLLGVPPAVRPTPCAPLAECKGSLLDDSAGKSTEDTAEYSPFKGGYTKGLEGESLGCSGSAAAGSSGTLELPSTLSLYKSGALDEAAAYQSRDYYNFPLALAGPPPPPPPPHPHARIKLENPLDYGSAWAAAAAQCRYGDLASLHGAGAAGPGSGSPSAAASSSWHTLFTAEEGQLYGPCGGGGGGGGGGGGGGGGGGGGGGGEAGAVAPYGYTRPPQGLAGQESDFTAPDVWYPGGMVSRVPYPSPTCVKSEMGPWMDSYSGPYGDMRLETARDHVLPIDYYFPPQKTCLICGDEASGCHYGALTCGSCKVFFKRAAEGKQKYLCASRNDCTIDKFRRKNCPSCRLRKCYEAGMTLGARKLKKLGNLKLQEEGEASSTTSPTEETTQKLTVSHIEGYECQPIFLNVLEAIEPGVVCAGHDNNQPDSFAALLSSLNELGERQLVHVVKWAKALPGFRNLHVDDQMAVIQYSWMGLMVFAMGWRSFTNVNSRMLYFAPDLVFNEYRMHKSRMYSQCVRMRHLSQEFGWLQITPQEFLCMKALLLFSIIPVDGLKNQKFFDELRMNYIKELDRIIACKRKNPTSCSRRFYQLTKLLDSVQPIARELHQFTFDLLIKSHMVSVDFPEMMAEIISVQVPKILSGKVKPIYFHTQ
The data set is described as follows: Androgen-inducible (3ARE) luciferase reporter in CV-1 cells transfected with human AR expression vector. The format is cell-based. The note with it: CV1 cells, 1 nM and 10 nM, 24 hours. How it is done: (§1) Cells were immunostained with an anti-AR antibody and 4′,6-diamidino-2-phenylindole (DAPI) to determine the nuclear location of the AR. FIG. 5D: CV-1 cells were transiently transfected in 48-well plates with 100 ng of luciferase reporter plasmid regulated by 3 androgen response elements (3ARE), 25 ng of pSV40 β-gal, or with or without 20 ng of the human AR expression vector. […] Then whole cell lysates were prepared to assess luciferase and β-gal activities. Transfection experiments were repeated three times in triplicate. Relative luciferase units (RLUs) were determined from three independent transfections and are presented as the mean+/−SEM.
(§2) Experiments were performed to assess the biological activity of IVMDHT. […] To determine the activity of IVMDHT in activating AR-mediated transcription, CV1 (FIG. 5D) and LNCaP cells (FIG. 5E) were transfected with an androgen-inducible luciferase reporter vector driven by AREs together either with or without the human AR expression vector.
In general terms: In a reporter assay the amount or activity of a reporter protein is the signal.

The target in another data set is T2, AR (Mus musculus, UniProt P19091).
T2 construct: from tissue; host or cells: living C57/B6 male mice, intact or castrated; prostate and other organs
T2 sequence (P19091 1-899): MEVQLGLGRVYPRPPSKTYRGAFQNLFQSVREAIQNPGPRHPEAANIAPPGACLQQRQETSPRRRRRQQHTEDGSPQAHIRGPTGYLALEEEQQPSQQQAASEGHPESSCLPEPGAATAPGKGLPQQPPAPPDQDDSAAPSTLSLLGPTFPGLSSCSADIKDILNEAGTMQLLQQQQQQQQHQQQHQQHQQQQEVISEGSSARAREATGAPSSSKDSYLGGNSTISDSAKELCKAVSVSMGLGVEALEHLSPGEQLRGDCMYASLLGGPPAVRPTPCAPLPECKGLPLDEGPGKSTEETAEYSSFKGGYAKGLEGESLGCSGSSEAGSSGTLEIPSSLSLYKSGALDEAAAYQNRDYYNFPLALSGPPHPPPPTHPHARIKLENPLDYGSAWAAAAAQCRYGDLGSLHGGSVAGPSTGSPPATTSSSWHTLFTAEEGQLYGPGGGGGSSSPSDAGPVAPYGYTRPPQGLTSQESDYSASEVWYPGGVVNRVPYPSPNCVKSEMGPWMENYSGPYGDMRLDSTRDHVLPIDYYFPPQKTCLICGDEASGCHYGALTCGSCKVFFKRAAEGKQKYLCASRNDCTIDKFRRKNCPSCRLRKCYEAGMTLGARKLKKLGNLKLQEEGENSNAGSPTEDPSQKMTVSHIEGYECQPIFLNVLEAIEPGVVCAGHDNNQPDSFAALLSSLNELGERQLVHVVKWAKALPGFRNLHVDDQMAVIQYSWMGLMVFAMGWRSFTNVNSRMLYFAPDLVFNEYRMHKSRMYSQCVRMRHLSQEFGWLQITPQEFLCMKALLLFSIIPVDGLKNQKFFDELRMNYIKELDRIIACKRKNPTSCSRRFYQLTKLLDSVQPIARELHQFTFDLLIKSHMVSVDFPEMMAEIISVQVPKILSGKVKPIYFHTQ
Put plainly: microPET imaging in intact and castrated C57/B6 male mice. The format is in vivo. As to conditions: 1.2 MBq intraperitoneal, images at 1, 2 and 6 hours. How it is done: FIGS. 6A-6E. The androgen analog ^124IVMDHT was intravenously injected into the tail-vein of intact (FIG. 6A) and castrated mice (FIG. 6B) and imaged at 1 hour (FIG. 6A panel 1, FIG. 6B panel 1), 2 hours (FIG. 6A panel 2, FIG. 6B panel 2) and 6 hours (FIG. 6A panel 3, FIG. 6B panel 3). […] The mice were then analyzed at 1 hour (FIG. 6D panel 1, FIG. 6E panel 1), 2 hour (FIG. 6D panel 2, FIG. 6E panel 2) and 6 hours (FIG. 6D panel 3, FIG. 6E panel 3). Positive images are shown with arrows.
In this example, microPET imaging and biodistribution assays will be performed using three available and biologically relevant animal models to fully examine the specific binding affinity of IVMDHT with the AR in vivo. […] Tissue samples were weighed and counted and the results expressed as % ID/g and total counts per organ. […] The biodistribution results will be analyzed in prostate and other non-AR enrich tissues from intact and castrated mice to determine specific uptake of ^124IVMDHT.
To determine the specific binding affinity of IVMDHT with the AR in vivo, microPET imaging and biodistribution assays were performed. The binding specificity of ^124IVMDHT in 4-month-old castrated and intact C57/B6 male mice (n=4 per group) was evaluated. […]
Using a similar experimental approach, IVNDHT was assessed in C57/B6 male mice. […] The intake rate of ^124IVNDHT was further assessed by intraperitoneal injection. […]

Data set [2] concerns the target T3, endogenous AR (Homo sapiens, UniProt P10275, T878A).
T3 construct: translocate endogenous AR into the nucleus in LNCaP cells; endogenous in cells; host or cells: LNCaP
T3 sequence (P10275 1-920 T878A): T1 sequence (P10275 1-920) with T878A
The data set is described as follows: AR nuclear translocation, immunostaining with anti-AR antibody and DAPI in LNCaP cells. The format is cell-based. As to conditions: 48 hours without androgens, then 8 hours with compound. How it is done:
as §1, §2

Data set [3] deals with T3, endogenous AR. Put plainly: Androgen-inducible (3ARE) luciferase reporter in LNCaP cells, endogenous AR transcriptional activity. The format is cell-based. The note with it: no AR expression vector, 1 nM and 10 nM, 24 hours. How it is done:
as §1, §2

Consider `C[C@]12CCC(=O)C[C@@H]1C[C@@H](/C=C/I)[C@@H]1[C@@H]2CC[C@]2(C)[C@@H](O)CC[C@@H]12` [IVDHT, 7α-(E-2′-iodovinyl)-5α-dihydrotestosterone], for which the half-life in data set [1] was roughly 1.5 h.
For the compound `C[C@]12CCC(=O)C[C@@H]1C[C@@H](/C=C/I)[C@@H]1[C@@H]2CC[C@@]2(C)[C@H]1CC[C@]2(C)O` [IVMDHT, 7α-(E-2′-iodovinyl)-17α-methyl-5α-dihydrotestosterone], the AR-mediated luciferase activity entry on human AR and at endogenous AR [3] was “increase in AR-mediated luciferase activity” in each case. Moreover, at AR, the “microPET signal in the vicinity of the bladder/prostate” value is “low dosage and intraperitoneal injections extend the specific intake”. In addition, the “nuclear location of the AR protein” value on endogenous AR [2] is on record as “uniform nuclear staining of the AR protein”. Besides, in data set [1], the half-life is roughly 1.5 h.
`C[C@]12CC[C@@H]3C4CCC(=O)C[C@@H]4C[C@@H](/C=C/I)[C@H]3[C@@H]1CC[C@@H]2O` (stereo partly drawn) [IVNDHT, 7α-(E-2′-iodovinyl)-19-nor-5α-dihydrotestosterone]: the half-life in data set [1] was roughly 1.5 h.
